Experimental findings from US9834535B2, “Sulfamate derivative compounds for use in treating or alleviating pain” (Bio-Pharm Solutions Co., Ltd., priority 2013, dated 2017) are described below.

This assay relates to CFA-induced pain model. Description: Antiallodynic activity on Complete Freund's Adjuvant (CFA)-induced inflammatory pain model (von Frey). Format: in vivo, Sprague-Dawley rats. As to conditions: rat, intraperitoneal; for CFA model: effect (%) at the concentration administered / response vs control in vivo at 60 mg/kg: 60 mg/kg; for response vs control in vivo at 60 mg/kg / response vs control in vivo at 40 mg/kg / response vs control in vivo at 18 mg/kg: Rattus norvegicus, ip, read-out: CFA model: effect (%) at the concentration administered. The protocol:
Male, Sprague-Dawley rats (200-220 g, Nara Bio, Korea) were habituated for 1 week before surgery and allowed free access to food and water throughout the experimentation. Room temperature and humidity were maintained at 24±2° C. and 50±10%, respectively.
CFA-induced inflammatory pain was induced by the procedure of Nagakura et al. (2003) and Gregory P. et al. (2010) with minor modifications. CFA (sigma, USA) was injected in the left plantar with a 100 ul volume under gaseous anesthesia with isoflurane a 4:4 flow ratio of NO2 Sham controls were injected with 100 ul of saline and vehicle controls were identical to CFA infusion model, except for administration of vehicles.
Tactile sensitivity (Mechanical allodynia) was evaluated using von Frey monofilaments before and after treatment, and animals were used withdrawal threshold value was less than 4 g. One week after surgery, CFA-infused animals (n=4˜6), sham-operated animals (n=12), and vehicle-operated animals (n=17) were tested for tactile sensitivity with von Frey monofilaments 3 trials in each animal. All Animals were placed in a stainless steel mashed chamber and habituated for 30 min in the test box. The tactile sensitivity for ipsilateral hind paw was measured using the up-and-down method (Dixon, 1980) with seven von Frey monofilaments (0.4, 1, 2, 4, 6, 8, and 15 g) to 3 trials. Tactile sensitivity test was followed by Dixon's method (Dixon, 1980). The 50% paw withdrawal threshold for each paw was calculated using the following formula: [Xth] log=[vFr] log+ky where [vFr] is the force of the last von Frey used, k=0.2249 which is the average interval (in log units) between the von Frey monofilaments, and y is a value that depends upon the pattern of withdrawal responses (Dixon, 1980).
[…] The test was performed peak time of efficacy (0.5 hr) after compound administration.
The relative values compared to the sham (% control) were calculated and shown in Table 4, which show an antiallodynic effect of the compound of Examples on CFA-induced pain model in rats.

Structures are written as SMILES. Like-named read-outs stand apart in the source and are kept apart here.

For the molecule `CC1(C)OC(COS(N)(=O)=O)C(c2ccccc2Cl)O1` (mixture of isomers) [Example 3, (5-(2-chlorophenyl)-2,2-dimethyl-1,3-dioxolan-4-yl)methyl sulfamate(SS & RR mixture)], for the setting “0.5 h”, the “CFA model: effect (%) at the concentration administered” value is on record as “^#60 (24.0%, 0.5 h)”. Still for that read-out and setting: for `CC1(C)OC(COS(N)(=O)=O)C(c2ccccc2Cl)O1` (mixture of isomers) [Example 4, (5-(2-chlorophenyl)-2,2-dimethyl-1,3-dioxolan-4-yl)methyl sulfamate(SR & RS mixture)] the value was “^#60 (49.9%, 0.5 h)”. Turning to `CC1(C)O[C@H](c2cnc(Cl)s2)[C@@H](COS(N)(=O)=O)O1` (stereo in doubt) [Example 166, ((4R,5S)-5-(2-chlorothiazol-5-yl)-2,2-dimethyl-1,3-dioxolan-4-yl)methyl sulfamate], the response vs control in vivo at 60 mg/kg (0.5 h, 0.5 h) was 30.4%. The same measure, in the same setting: next, `CC1(C)O[C@H](c2ccccc2Cl)[C@@H](COS(N)(=O)=O)O1` [Example 1, ((4R,5R)-5-(2-chlorophenyl)-2,2-dimethyl-1,3-dioxolan-4-yl)methyl sulfamate]: 21.1%. On the same count and under the same terms, for `CC1O[C@@H](COS(N)(=O)=O)[C@H](c2ccccc2Cl)O1` (stereo partly drawn) [Example 6, ((4S,5S)-5-(2-chlorophenyl)-2-methyl-1,3-dioxolan-4-yl)methyl sulfamate] the value was 22.4%. As to `CCC1(CC)O[C@@H](COS(N)(=O)=O)[C@H](c2ccccc2Cl)O1` [Example 8, ((4S,5S)-5-(2-chlorophenyl)-2,2-diethyl-1,3-dioxolan-4-yl)methyl sulfamate], the response vs control in vivo at 40 mg/kg (0.5 h, 0.5 h) was determined as 23.3%. Turning to `NS(=O)(=O)OC[C@@H]1OC2(CCCC2)O[C@H]1c1ccccc1Cl` [Example 10, ((2S,3S)-3-(2-chlorophenyl)-1,4-dioxaspiro[4,4]nonan-2-yl)methyl sulfamate], the response vs control in vivo at 60 mg/kg (0.5 h, 0.5 h) came out at 20.7%. With `NS(=O)(=O)OC[C@@H]1OC2(CCCCC2)O[C@H]1c1ccccc1Cl` [Example 12, ((2S,3S)-3-(2-chlorophenyl)-1,4-dioxaspiro[4,5]decan-2-yl)methyl sulfamate], the response vs control in vivo at 18 mg/kg (0.5 h, 0.5 h) was determined as 48.8%. On to `CC1(C)O[C@@H](COS(N)(=O)=O)[C@H](c2ccc(Cl)cc2Cl)O1` [Example 40, ((4S,5S)-5-(2,4-dichlorophenyl)-2,2-dimethyl-1,3-dioxolan-4-yl)methyl sulfamate], for which the response vs control in vivo at 60 mg/kg (0.5 h, 0.5 h) was determined as 22.5%.

For the molecule `CC1(C)O[C@@H](COS(N)(=O)=O)[C@H](c2c(Cl)cccc2Cl)O1` [Example 52, ((4S,5S)-5-(2,6-dichlorophenyl)-2,2-dimethyl-1,3-dioxolan-4-yl)methyl sulfamate], under “0.5 h, 0.5 h”, the response vs control in vivo at 60 mg/kg turned out to be 33.3%. Turning to `CC1(C)O[C@@H](COS(N)(=O)=O)[C@H](c2ccccc2N)O1` [Example 66], the response vs control in vivo at 60 mg/kg (1 h, 1 h) amounted to 16.5%. For the molecule `CCC1(CC)O[C@@H](COS(N)(=O)=O)[C@H](c2ccccc2N)O1` [Example 70, ((4S,5S)-5-(2-aminophenyl)-2,2-diethyl-1,3-dioxolan-4-yl)methyl sulfamate], the response vs control in vivo at 40 mg/kg (0.5 h, 0.5 h) was 18.8%. Regarding `Nc1ccccc1[C@@H]1OC2(CCCCC2)O[C@H]1COS(N)(=O)=O` [Example 74, ((2S,3S)-3-(2-aminophenyl)-1,4-dioxaspiro[4,5]decan-2-yl)methyl sulfamate], the response vs control in vivo at 60 mg/kg (0.5 h, 0.5 h) amounted to 37.1%. `NS(=O)(=O)OC[C@@H]1OC(=O)O[C@H]1c1ccccc1[N+](=O)[O-]` [Example 90, ((4S, 5S)-5-(2-nitrophenyl)-2-oxo-1,3-dioxolan-4-yl)methyl sulfamate]: the response vs control in vivo at 60 mg/kg (0.5 h, 0.5 h) was 15.6%. `CNc1ccccc1[C@@H]1OC(C)(C)O[C@H]1COS(=O)(=O)NC` [Example 104, ((4S, 5S)-5-(2-methylaminophenyl)-2,2-dimethyl-1,3-dioxolan-4-yl)methyl methylsulfamate]: the response vs control in vivo at 40 mg/kg (0.5 h, 0.5 h) came to 24.1%.

Turning to `CCC1(CC)O[C@@H](COS(N)(=O)=O)[C@H](c2ccccc2)O1` [Example 108, ((4S,5S)-5-phenyl-2,2-diethyl-1,3-dioxolan-4-yl)methyl sulfamate], the response vs control in vivo at 40 mg/kg (0.5 h, 0.5 h) worked out at 37.5%. On the same count and under the same terms, next, `NS(=O)(=O)OC[C@@H]1OC2(CCCC2)O[C@H]1c1ccccc1` [Example 110, ((2S,3S)-3-phenyl-1,4-dioxaspiro[4,4]nonan-2-yl)methyl sulfamate]: 42.7%; `NS(=O)(=O)OC[C@@H]1OC2(CCCCC2)O[C@H]1c1ccccc1` [Example 112, ((2S,3S)-3-phenyl-1,4-dioxaspiro[4,5]decan-2-yl)methyl sulfamate]: 41.1%; `CC1(C)O[C@H](CCOS(N)(=O)=O)[C@@H](Cc2ccccc2)O1` [Example 114, 2-((4R,5R)-5-benzyl-2,2-dimethyl-1,3-dioxolan-4-yl)ethyl sulfamate]: 29.8%. On to `CCC1(CC)O[C@H](CCOS(N)(=O)=O)[C@@H](Cc2ccccc2)O1` [Example 116, 2-((4R,5R)-5-benzyl-2,2-diethyl-1,3-dioxolan-4-yl)ethyl sulfamate], for which, under “0.5 h, 0.5 h”, the response vs control in vivo at 40 mg/kg was determined as 14.5%.

Take `NS(=O)(=O)OCC[C@H]1OC2(CCCCC2)O[C@@H]1Cc1ccccc1` [Example 120, 2-((2R,3R)-3-benzyl-1,4-dioxaspiro[4,5]decan-2-yl)ethyl sulfamate]: the response vs control in vivo at 40 mg/kg (0.5 h, 0.5 h) amounted to 23%. Same read-out and setting: next, `CCC1(CC)O[C@H](COS(N)(=O)=O)[C@@H](Cc2ccccc2)O1` [Example 124, ((4R,5R)-5-benzyl-2,2-diethyl-1,3-dioxolan-4-yl)methyl sulfamate]: 34.2%; `NS(=O)(=O)OC[C@H]1OC2(CCCC2)O[C@@H]1Cc1ccccc1` [Example 126, ((2R,3R)-3-benzyl-1,4-dioxaspiro[4,4]nonan-2-yl)methyl sulfamate]: 43.5%. `NS(=O)(=O)OC[C@H]1OC2(CCCCC2)O[C@@H]1Cc1ccccc1` [Example 128, ((2R,3R)-3-benzyl-1,4-dioxaspiro[4,5]decan-2-yl)methyl sulfamate]: the response vs control in vivo at 18 mg/kg (0.5 h, 0.5 h) stood at 24.5%. In the case of `CC1(C)O[C@@H](CCOS(N)(=O)=O)[C@H](c2ccccc2)O1` [Example 130, 2-((4S,5S)-5-phenyl-2,2-dimethyl-1,3-dioxolan-4-yl)ethyl sulfamate], under “0.5 h, 0.5 h”, the response vs control in vivo at 40 mg/kg came out at 19.4%.

Regarding `CCC1(CC)O[C@@H](CCOS(N)(=O)=O)[C@H](c2ccccc2)O1` [Example 132, 2-((4S,5S)-5-phenyl-2,2-diethyl-1,3-dioxolan-4-yl)ethyl sulfamate], where the note is “0.5 h, 0.5 h”, the response vs control in vivo at 40 mg/kg came out at 24.8%.

As to `NS(=O)(=O)OCC[C@@H]1OC2(CCCC2)O[C@H]1c1ccccc1` [Example 134, 2-((2S,3S)-3-phenyl-1,4-dioxaspiro[4,4]nonan-2-yl)ethyl sulfamate], the response vs control in vivo at 18 mg/kg (0.5 h, 0.5 h) turned out to be 71.1%. On the same count and under the same terms, next, `NS(=O)(=O)OCC[C@@H]1OC2(CCCCC2)O[C@H]1c1ccccc1` [Example 136, 2-((2S,3S)-3-phenyl-1,4-dioxaspiro[4,5]decan-2-yl)ethyl sulfamate]: 32.4%. In the case of `CCC1(CC)O[C@H](CCOS(N)(=O)=O)[C@@H](Cc2ccccc2Cl)O1` [Example 140, 2-((4R,5R)-5-(2-chlorobenzyl)-2,2-diethyl-1,3-dioxolan-4-yl)ethyl sulfamate], the response vs control in vivo at 40 mg/kg (0.5 h, 0.5 h) was 37.4%. In the case of `NS(=O)(=O)OCC[C@H]1OC2(CCCCC2)O[C@@H]1Cc1ccccc1Cl` [Example 144, 2-((2R,3R)-3-(2-chlorobenzyl)-1,4-dioxaspiro[4,5]decan-2-yl)ethyl sulfamate], the response vs control in vivo at 40 mg/kg (0.5 h, 0.5 h) was determined as 36.6%.

Regarding `CCC1(CC)O[C@H](COS(N)(=O)=O)[C@@H](Cc2ccccc2Cl)O1` [Example 148, ((4R,5R)-5-(2-chlorobenzyl)-2,2-diethyl-1,3-dioxolan-4-yl)methyl sulfamate], for the setting “0.5 h, 0.5 h”, the response vs control in vivo at 40 mg/kg was 15.5%. On to `NS(=O)(=O)OC[C@H]1OC2(CCCC2)O[C@@H]1Cc1ccccc1Cl` [Example 150, ((2R,3R)-3-(2-chlorobenzyl)-1,4-dioxaspiro[4,4]nonan-2-yl)methyl sulfamate], for which, for the setting “0.5 h, 0.5 h”, the response vs control in vivo at 40 mg/kg is 17.6%. For `NS(=O)(=O)OC[C@H]1OC2(CCCCC2)O[C@@H]1Cc1ccccc1Cl` [Example 152, ((2R,3R)-3-(2-chlorobenzyl)-1,4-dioxaspiro[4,5]decan-2-yl)methyl sulfamate], the response vs control in vivo at 40 mg/kg (0.5 h, 0.5 h) worked out at 34.9%.

`CC1(C)O[C@@H](CCOS(N)(=O)=O)[C@H](c2ccccc2Cl)O1` [Example 154, 2-((4S,5S)-5-(2-chlorophenyl)-2,2-dimethyl-1,3-dioxolan-4-yl)ethyl sulfamate]: the response vs control in vivo at 40 mg/kg (0.5 h, 0.5 h) worked out at 32.1%.
